US11415579B2, “Assay for measuring a rate of reaction between a target and a ligand candidate” (Imperial College Innovations Ltd., priority 2016, dated 2022)

Columns and labels:
[1] = Kinetic thiol consumption assay with model thiol glutathione; assay type: physicochemical; design: Rate constant with glutathione (k(GSH)): unit not given here; details: for Rate constant with glutathione (k(GSH)): 500 μM ligand, 5 μM thiol, phosphate buffer pH 8; for Rate constant with Glutathione: Protein: Glutathione, cysteine position NA, in h-1
How it was run: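 First, 5 μM glutathione in degassed phosphate buffer (pH 8) receives immobilized TCEP beads (2% v/v). Then acrylamide is added and plates incubate 1 h at room temperature. Finally, fluorescence (380/470 nm) is normalized and fitted to first-order decay for rate constants.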

[2] = target: T1, human cyclin-dependent kinase 2 (Cdk2) (Homo sapiens, UniProt P24941); assay: Kinetic thiol consumption assay with wild type Cdk2 (C177); assay type: binding; design: key to Rate enhancement, Cdk2 WT: k(Cdk2) divided by k(model thiol); Rate constant with Cdk2 (k(Cdk2)): unit not given here; details: for Rate constant with Cdk2 (k(Cdk2)): 500 μM ligand, 5 μM thiol, phosphate buffer pH 8; for Rate enhancement, Cdk2 WT: no additional mutations; for Rate constant with Cdk2 WT: Protein: Cdk2, cysteine position WT, in h^-1; for k(Cdk2)/k(Cdk2_mut) rate enhancement: model thiol Cdk2[C177A, F80C, K278C]; for k(Cdk2)/k(GSH) rate enhancement: model thiol glutathione
T1 construct: poly-histidine; made in house; host or cells: E. coli
How it was run: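 His-tagged human Cdk2 from E. coli (sole surface cysteine C177) or a model thiol, each 5 μM in degassed phosphate buffer pH 8 with immobilized TCEP, reacted with acrylamides at room temperature. Fluorescence (ex 380/em 470) normalized to DMSO/thiol control over time; first-order rate constants, Cdk2 rate divided by model-thiol rate.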

[3] = target: T2, Cdk2[C177A, F80C, K278C] (Homo sapiens, UniProt P24941, C177A/F80C/K278C); assay: Kinetic thiol consumption assay with mutant Cdk2 as model thiol; assay type: binding; design: unit not given here; details: 500 μM ligand, 5 μM thiol, phosphate buffer pH 8
T2 construct: poly-histidine; made in house; host or cells: E. coli
How it was run: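 Model thiol: His-tagged human Cdk2 C177A/F80C/K278C (two engineered surface cysteines), E. coli-expressed, 5 μM in degassed phosphate buffer pH 8 with immobilized TCEP beads (2% v/v). Fluorescence (ex/em 380/470 nm) followed over time at room temperature, normalized to DMSO/thiol control. First-order decay fit gives rate constants.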

[4] = target: T3, Cdk2(C177A, F80C) (Homo sapiens, UniProt P24941, C177A/F80C); assay: Kinetic thiol consumption assay with Cdk2 mutant F80C, incl. kobs versus concentration (Kd, k2); assay type: binding; design: key to Rate enhancement, Cdk2 F80C: Cdk2 rate constant divided by model-thiol rate constant; details: for Rate enhancement, Cdk2 F80C / Rate constant with Cdk2 F80C: additional mutation C177A; for Rate constant with Cdk2 F80C: Protein: Cdk2, cysteine position F80C, in h^-1
T3 construct: poly-histidine; made in house; host or cells: E. coli
How it was run: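 His-tagged Cdk2(C177A/F80C) from E. coli or model thiol, 5 μM in degassed phosphate buffer pH 8 with TCEP beads, reacted with acrylamide ligands; fluorescence (ex/em 380/470 nm) normalized to DMSO control and fitted to first-order decay for kobs. Kd and k2 obtained from hyperbolic fit of kobs versus ligand concentration.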

[5] = target: T4, Cdk2(H71C) (C177A) (Homo sapiens, UniProt P24941, C177A/H71C); assay: Kinetic thiol consumption assay with Cdk2 mutant H71C; assay type: binding; design: key to Rate enhancement, Cdk2 H71C: rate constant with Cdk2 ÷ rate constant with model thiol (fold); details: additional mutation C177A; for Rate constant with Cdk2 H71C: Protein: Cdk2, cysteine position H71C, in h^-1
T4 construct: poly-histidine; made in house; host or cells: E. coli
How it was run: (§1)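 His-tagged single-surface-cysteine Cdk2 mutants (C177A background) from E. coli, 5 μM in degassed phosphate buffer pH 8, pre-treated with immobilized TCEP beads. Fluorescence (ex/em 380/470 nm) read after 1 h at room temperature, normalized to DMSO/thiol-only control; first-order decay fits gave rate constants, divided by model-thiol rate for rate enhancement.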

[6] = target: T5, Cdk2(S276C) (C177A) (Homo sapiens, UniProt P24941, C177A/S276C); assay: Kinetic thiol consumption assay with Cdk2 mutant S276C; assay type: binding; design: key to Rate enhancement, Cdk2 S276C: rate constant with Cdk2 ÷ rate constant with model thiol (fold); details: additional mutation C177A; for Rate constant with Cdk2 S276C: Protein: Cdk2, cysteine position S276C, in h^-1
T5 construct: poly-histidine; made in house; host or cells: E. coli
How it was run: as §1

[7] = target: T6, Cdk2(N272C) (C177A) (Homo sapiens, UniProt P24941, C177A/N272C); assay: Kinetic thiol consumption assay with Cdk2 mutant N272C; assay type: binding; design: key to Rate enhancement, Cdk2 N272: rate constant with Cdk2 ÷ rate constant with model thiol (fold); details: for Rate enhancement, Cdk2 N272: Cdk2 N272, additional mutation C177A; for Rate constant with Cdk2 N272C: Protein: Cdk2, cysteine position N272C, additional mutation C177A, in h^-1
T6 construct: poly-histidine; made in house; host or cells: E. coli
How it was run: as §1

[8] = target: T7, Cdk2(T182C) (C177A) (Homo sapiens, UniProt P24941, C177A/T182C); assay: Kinetic thiol consumption assay with Cdk2 mutant T182C; assay type: binding; design: key to Rate enhancement, Cdk2 T182C: rate constant with Cdk2 ÷ rate constant with model thiol (fold); details: additional mutation C177A; for Rate constant with Cdk2 T182C: Protein: Cdk2, cysteine position T182C, in h^-1
T7 construct: poly-histidine; made in house; host or cells: E. coli
How it was run: as §1

[9] = target: T8, Cdk2(R122C) (C177A) (Homo sapiens, UniProt P24941, C177A/R122C); assay: Kinetic thiol consumption assay with Cdk2 mutant R122C; assay type: binding; design: key to Rate enhancement, Cdk2 R122C: rate constant with Cdk2 ÷ rate constant with model thiol (fold); details: additional mutation C177A; for Rate constant with Cdk2 R122C: Protein: Cdk2, cysteine position R122C, in h-1
T8 construct: poly-histidine; made in house; host or cells: E. coli
How it was run: as §1

[10] = target: T9, Cdk2(S181C) (C177A) (Homo sapiens, UniProt P24941, C177A/S181C); assay: Kinetic thiol consumption assay with Cdk2 mutant S181C; assay type: binding; design: key to Rate enhancement, Cdk2 S181C: rate constant with Cdk2 ÷ rate constant with model thiol (fold); details: additional mutation C177A; for Rate constant with Cdk2 S181C: Protein: Cdk2, cysteine position S181C, in h^-1
T9 construct: poly-histidine; made in house; host or cells: E. coli
How it was run: as §1

[11] = hyperbolic fit of kobs against ligand concentration

Rate constant with Cdk2 (k(Cdk2)) [2] | Rate enhancement, Cdk2 WT [2] | Rate constant with Cdk2 WT [2] | k(Cdk2)/k(Cdk2_mut) rate enhancement [2] | k(Cdk2)/k(GSH) rate enhancement [2] | Rate constant with Cdk2[C177A, F80C, K278C] (k(Cdk2_mut)) [3] | Rate enhancement, Cdk2 F80C [4] | Rate enhancement, Cdk2 H71C [5] | Rate constant with Cdk2 H71C [5] | Rate enhancement, Cdk2 S276C [6] | Rate constant with Cdk2 S276C [6] | Rate enhancement, Cdk2 N272 [7] | Rate constant with Cdk2 N272C [7] | Rate enhancement, Cdk2 T182C [8] | Rate constant with Cdk2 T182C [8] | Rate enhancement, Cdk2 R122C [9] | Rate constant with Cdk2 R122C [9] | Rate enhancement, Cdk2 S181C [10] | SMILES | Rate constant with glutathione (k(GSH)) [1] | Rate constant with Glutathione [1] | also measured
0.02784 | 1.053 | 0.01944 | 2.793 | 2.056 | 0.00997 | 1.278 | 1.75 | 0.03232 | 2.718 | 0.0502 | 0.7223 | 0.01334 | 10.15 | 0.1874 | 0.6416 | 0.01185 | 0.5858 | C=CC(=O)N1CCCc2sccc2C1 [CA-034] | 0.01354 | 0.01847 | Rate constant with Cdk2 F80C [4]: 0.02361; Rate constant with Cdk2 S181C [10]: 0.01082
0.05015 | 3.308 | 0.05015 | 0.2569 | 3.293 | 0.1952 | 63.59 | 1.964 | 0.02977 | 1.763 | 0.02673 | 1.739 | 0.02636 | 12.3 | 0.1865 | 0.9697 | 0.0147 | 1.495 | C=CC(=O)Nc1ccc(-c2ncccn2)cc1 [CA-037] | 0.01523 | 0.01516 | hit classification against Cdk2(F80C, C177A) [4]: hit ligands; Rate constant with Cdk2 F80C [4]: 0.964; kobs ([4]; [CA37] 0.02 mM): 0.00007107 min⁻¹; kobs ([4]; [CA37] 0.05 mM): 0.000271 min⁻¹; kobs ([4]; [CA37] 0.1 mM): 0.0006704 min⁻¹; kobs ([4]; [CA37] 0.2 mM): 0.001313 min⁻¹; kobs ([4]; [CA37] 0.35 mM): 0.002029 min⁻¹; kobs ([4]; [CA37] 0.5 mM): 0.002372 min⁻¹; kobs ([4]; [CA37] 1 mM): 0.004177 min⁻¹; kobs ([4]; [CA37] 2 mM): 0.005626 min⁻¹; Kd [4, 11]: 1200 µM; k2 [4, 11]: 0.009427 min⁻¹; Rate constant with Cdk2 S181C [10]: 0.02267
0.00332 | 0.5218 | 0.005901 | 0.9623 | 0.5101 | 0.00345 | 0 | 0.8254 | 0.009335 | 0.5828 | 0.006591 | 0.592 | 0.006696 | 1.744 | 0.01973 | 0.3691 | 0.004175 | 0.4715 | C=CC(=O)NCC1CN(C2CC2)CCO1 (stereo not shown) [CA-038] | 0.0065 | 0.01131 | Rate constant with Cdk2 S181C [10]: 0.005333
